Test results published in PMC12040169 (PLOS Biology, 2025).

Experiment: in vitro
Conditions: human, hela cells

Row | Structure (SMILES) | viability at 28.5 h, 10 µM | viability at 28.5 h, 10 µM (% viability)
1 | COc1ccc(C(=O)Oc2ccc(C(c3c(C)n[nH]c3O)c3c(C)n[nH]c3O)cc2)cc1 [CBK264740] | 112% | 
2 | CN1CCC(N(C)Cc2ccc3c(c2)OCO3)CC1 [CBK261564] |  | 86.8%
3 | Cn1cnc2cc(-c3nnn[nH]3)ccc21 [CBK306265] |  | 90.2%
4 | CN1C(=O)C2(N=C(N)NC(Nc3ccc(F)cc3)=N2)c2ccccc21 (stereo not shown) [CBK270285] |  | 94.8%
5 | CCCN1CCC(CNC(=O)c2cc(C3CCCCC3)no2)CC1 [CBK283297] |  | 98.2%
6 | CC1(CNC(=O)c2ccc(N3CCCCC3)cc2)COC1 [CBK281746] |  | 105%
7 | CCOC(=O)c1c(NC(=S)NCc2ccccn2)sc2c1CCCCC2 [CBK266954] |  | 106%
8 | O=C(Nc1ccccc1)C(N1CCCCC1)N1CCCCC1 [CBK263425] |  | 105%
9 | N=c1n(CC(=O)c2ccc(Br)s2)c2ccccc2n1Cc1ccccc1 [CBK262482B] |  | 91.4%
10 | CC(C)NC(=O)C1(Cc2ccc(-c3ccccc3F)cc2)CCN(C(=O)C(C)C)CC1 [CBK285754] |  | 102%
11 | O=C(Nc1sc2c(c1C(=O)NCc1ccco1)CCCC2)c1sc2ccccc2c1Cl [CBK265086] |  | 92.1%
12 | CSc1nnc(-c2ccco2)n1-c1cccc(Cl)c1C [CBK067723] |  | 93.1%
13 | CC(C)(C)C(=O)NC(N(Cc1ccccc1)Cc1ccccc1)C(Cl)(Cl)Cl (stereo not shown) [CBK261023] |  | 97.7%
14 | CS(=O)(=O)c1cc(Br)cc(C(=O)NCCNc2cnccn2)c1F [CBK305731] |  | 85.8%
15 | Cc1ccccc1NC(=O)CCC(=O)N/N=C/c1ccncc1 [CBK262016] |  | 101%
16 | O=C1CN(C(=O)c2cccc(Cl)c2)c2ccccc2N1 [CBK017844] |  | 101%
17 | CN1CCN(CC2(Cn3ccnc3-c3ccc(C(=O)O)cc3)CC2)CC1 [CBK307641] |  | 75.1%
18 | CCc1ccc(N(CC(=O)NCc2ccccn2)S(C)(=O)=O)cc1 [CBK265322] |  | 98.8%
19 | O=C(c1ccc(OC(F)(F)F)cc1)N1CCC2(CCN(C(=O)c3ccoc3)C2)C1 (stereo not shown) [CBK131735] |  | 92.8%
20 | CCOC(=O)C(NC(=O)C1CCC(=O)N1)c1cccc(C)c1C (stereo not shown) [CBK305472] |  | 93.8%
21 | CCn1ccc(C(=O)NC(c2cncc(OC)c2)[C@H]2C[C@@H](O)C2)cc1=O (stereo partly shown) [CBK307696] |  | 110%
22 | O=C(Cc1csc(-c2ccsc2)n1)Nc1nc2c(s1)CCC2 [CBK297935] |  | 96.8%
23 | COc1ccc(O)c(CN2CCC(N3CCCCC3)CC2)c1 [CBK261849] |  | 94.9%

Row | Structure (SMILES) | viability at 28.5 h, 10 µM | viability at 28.5 h, 10 µM (% viability)
24 | CCCc1cc(=O)[nH]c(Nc2ccc(OCC)cc2)n1 [CBK288140] |  | 112%
25 | Cc1cc(Cl)c(S(=O)(=O)Nc2ccc(Oc3ccccc3)cc2)cc1OCC(N)=O [CBK266583] |  | 99.8%
26 | CCC(=O)N1CC[C@H]2NC(=O)c3ccccc3OCC/C=C/C[C@H]2C1 [CBK291999] |  | 91.3%
27 | Cc1cc(S(=O)(=O)NC(=O)CC2CCOc3ccccc32)c(C)o1 (stereo not shown) [CBK304499] |  | 105%
28 | C=CCC(NCc1ccccc1)c1ccc(C(=O)O)o1 (stereo not shown) [CBK286591] |  | 84.1%
29 | O=C(NCc1ccco1)C1(c2ccccc2)CCCC1 [CBK149539] |  | 96%
30 | COc1cc2c(cc1OC)C1(CCN(CCc3c[nH]c4ccccc34)CC1)NC(=O)C2 [CBK039992] |  | 99.3%
31 | COc1ccc(-c2nn(CC(=O)O)cc2/C=C/c2cc(C(F)(F)F)nc(=O)[nH]2)cc1 [CBK287128] |  | 86.8%
32 | COc1ccc(-c2n[nH]c(=S)n2CC(=O)Nc2nc(-c3ccc(C)cc3C)cs2)cc1 [CBK295316] |  | 96.9%
33 | Cc1cc(C)nc(N2CCC(CC(=O)NCc3ccccc3N3CCCC3)CC2)n1 [CBK286071] |  | 95.5%
34 | CC(=O)C1=C(O)C(=O)N(CCN2CCOCC2)C1c1cccc([N+](=O)[O-])c1 (stereo not shown) [CBK264568] |  | 98%
35 | CSc1nncc(-c2ccc(Cl)cc2)n1 [CBK028747] |  | 77.1%
36 | COc1ccc(-c2cc(C(=O)N3CCN(C(C)=O)CC3)cnc2-c2ccc(Cl)cc2)cc1 [CBK037577] |  | 102%
37 | COCCCn1cnnc1C(C)NC(=O)N(C)Cc1nccs1 (stereo not shown) [CBK306702] |  | 111%
38 | CN(C)S(=O)(=O)N(C)c1ccc(C(=O)O)cc1 [CBK287244] |  | 105%
39 | CC1CCCCN1C(=O)Cn1c(C2CCOCC2)cc2cccnc21 (stereo not shown) [CBK284675] |  | 97.7%
40 | O=C(c1cc(F)c(F)cc1F)N1CCC2(CCCN(C/C=C/c3ccccc3)C2)C1 (stereo not shown) [CBK132001] |  | 107%
41 | Cc1cc(Cn2nnc(-c3cccnc3)n2)cc(C)c1O [CBK291130] |  | 113%
42 | O=C(CN1CCC(NC(=O)c2ccccc2)CC1)Nc1ccccc1 [CBK074716] |  | 96.7%
43 | Cc1nc2cc(C(=O)O)ccc2[nH]1 [CBK220035] |  | 84.6%
44 | Cc1nc(NS(=O)(=O)Cc2ccccc2)sc1C(=O)O [CBK045552] |  | 110%
45 | Nc1nc(N)c(Cc2ccc(Cl)cc2Cl)c(N)n1 [CBK009425] |  | 94.7%
46 | CCCn1nnc(NC(=O)COc2ccc3ccccc3c2)n1 [CBK265923] |  | 101%

Row | Structure (SMILES) | viability at 28.5 h, 10 µM | viability at 28.5 h, 10 µM (% viability)
47 | Cc1nc2ccccc2n1CC(O)COc1ccccc1 (stereo not shown) [CBK288084] |  | 106%
48 | Cc1nnc(N2CCN(Cc3sccc3Cl)CC2)nc1C [CBK304075] |  | 93.7%
49 | CC(C)NC(=O)N[C@H]1CC[C@]2(CC1)CC(=O)c1ccccc1O2 [CBK283389] |  | 111%
50 | CNC(=O)c1sc2ccccc2c1C1CCN(Cc2nc3ccccc3n2C(C)C)C1 (stereo not shown) [CBK285929] |  | 98.4%
51 | Nc1cc(Cl)nc(SCC2CCCCC2)n1 [CBK007970] |  | 93.2%
52 | c1ncc(N2CCCC2)nc1OC1CCOC1 (stereo not shown) [CBK115893] |  | 91.3%
53 | N#Cc1cccc(Cn2cc(NC(=O)NCCc3cccs3)cn2)c1 [CBK043824] |  | 94.9%
54 | COc1ccc(Oc2nccnc2N2CCN(CCOc3ccccc3)CC2)cc1OC [CBK083061T] |  | 86.3%
55 | COc1cc(-c2nccnc2N2CCN(c3ccncc3)CC2)cc(OC)c1OC [CBK036847] |  | 92%
56 | CCCOCCCNS(=O)(=O)c1ccc(C(C)(C)CC)cc1 [CBK044821] |  | 106%
57 | COC(=O)CCc1ccc(S(=O)(=O)N2CCCN(Cc3ccc(C)o3)CC2)cc1 [CBK063081] |  | 99.8%
58 | N/C(CS(=O)(=O)Cc1ccc(F)cc1)=N/O [CBK010956] |  | 89.2%
59 | Cc1ccc(OCc2occc2C(=O)N2CCc3[nH]cnc3C2)cc1 [CBK307717] |  | 85.6%
60 | Cc1nc(Nc2ccc(Cl)cc2)nc(N2CCN(C)CC2)n1 [CBK023855] |  | 95.4%
61 | Cc1cc(COc2nccnc2N2CCN(CCCC#N)CC2)no1 [CBK084198] |  | 93.5%
62 | CCOC(=O)c1cccc(-c2ccc(OC(F)(F)F)cc2)n1 [CBK149251] |  | 96.6%
63 | COc1ccc(/C=C/c2nc3ccccc3s2)cc1S(=O)(=O)N1CCOCC1 [CBK269373] |  | 89.9%
64 | C=C(C)CN1CCN(CC(CC(=O)NCc2ccccc2)C(=O)O)CC1 (stereo not shown) [CBK286823] |  | 98.1%
65 | COc1ccc(CC(C(=O)O)C(=O)O)cc1OC [CBK262127] |  | 95.9%
66 | O=C(NC[C@H]1O[C@@H](CC(=O)N2CCCC2)[C@H](O)[C@@H]1O)c1ccccc1 [CBK288907] |  | 88.5%
67 | COCC1CN(C(=O)Nc2nnc(Cc3ccc(C)cc3)s2)CCO1 (stereo not shown) [CBK306278] |  | 83.3%
68 | Cc1cc(C(F)(F)F)nc(NCc2ccco2)n1 [CBK269555] |  | 105%
69 | CCOc1ccccc1Nc1nc(N)nc(CN2CCCCC2C)n1 (stereo not shown) [CBK266548] |  | 105%

Row | Structure (SMILES) | viability at 28.5 h, 10 µM | viability at 28.5 h, 10 µM (% viability)
70 | O=C(O)c1sccc1S(=O)(=O)NCc1ccc(Cn2cccn2)cc1 [CBK296707] |  | 99.4%
71 | OC1CC(c2cc(NCCc3nc4ccccc4o3)ncn2)C1 (stereo not shown) [CBK306573] |  | 99.9%
72 | COc1cccc(OC)c1-c1cn2ccnc2c(NCc2ccccn2)n1 [CBK037439] |  | 93.7%
73 | COc1ccccc1-c1nccnc1N[C@H](C)c1ccccc1 [CBK038083] |  | 107%
74 | CCCc1[nH]nc(O)c1CCc1ccc(OC)cc1 [CBK081128] |  | 102%
75 | Cc1ccc(/C=N/N=C2/N=C(O)C(CC(=O)Nc3ccccc3C(F)(F)F)S2)o1 (stereo not shown) [CBK263731] |  | 104%
76 | CCCn1c(C)c(C)n2c3c(=O)n(CCC(=O)OC)c(=O)n(C)c3nc12 [CBK306048] |  | 98.4%
77 | Cc1cccc(NC(=O)[C@@H](NC(=O)c2ccccc2F)C(C)C)c1C [CBK297509] |  | 85.4%
78 | Cc1ccc(CN2CC[C@@H]3[C@H](C2)[C@@H](c2ccsc2)CN3C(=O)c2ccccc2F)cc1 [CBK285658] |  | 96.5%
79 | N#CCCN(Cc1cccnc1)C(=O)Cc1noc2ccccc12 [CBK304001] |  | 113%
80 | N=C(N)Nc1nc(-c2ccccc2)c2cc(F)ccc2n1 [CBK267350] |  | 82.7%
81 | CCCCCNC(=O)C1CCN(Cn2c(=O)oc3cc(Cl)ccc32)CC1 [CBK298290] |  | 86.3%
82 | Cc1noc(C)c1S(=O)(=O)NCC(=O)N1CCOCC1 [CBK034476] |  | 94.9%
83 | CC(C)c1cccc(C(C)C)c1OCC(O)CN1CCCCC1 (stereo not shown) [CBK003079T] |  | 94.6%
84 | Cn1c(=O)n(CC(=O)NCc2ccccc2F)c2cccnc21 [CBK283909] |  | 88.1%
85 | CC(=O)OC(C(=O)N1CCCCCC1)c1ccc(Br)cc1 (stereo not shown) [CBK007027] |  | 109%
86 | NC(=O)CN1CC2(CCN(CCCCC3NC(=O)NC3=O)CC2)c2ccccc21 (stereo not shown) [CBK126799] |  | 95.9%
87 | Cc1ccc(S(=O)(=O)NCc2c(-c3ccccc3)c3cc(Br)ccc3[nH]c2=O)cc1 [CBK265231] |  | 98.3%
88 | CC1Cc2ccccc2N1C(=O)CSc1nnc(N)s1 (stereo not shown) [CBK269530] |  | 94.3%
89 | OCCCNc1nccnc1-c1ccc(F)cc1 [CBK037348] |  | 109%
90 | O=C(O)c1ccc(NS(=O)(=O)c2cccs2)cc1O [CBK092145] |  | 101%
91 | Clc1cccc(C2N(Cc3ccccc3)CCN2Cc2ccccc2)c1 [CBK261222] |  | 93.1%
